Data taken from EP4631938A1, “NITROGEN-CONTAINING HETEROCYCLE WITH SEROTONIN RECEPTOR-BINDING ACTIVITY AND CARBOCYCLIC DERIVATIVE” (Shionogi & Co., Ltd, priority 2022, dated 2024).
Read-outs that look alike come from different tables or passages of the source. Blank lines part the entries; values can stand above or below the compound they belong to.

Key:
[1] = target: T1, human recombinant 5-HT2A receptor (Homo sapiens, UniProt P28223); test: Test Example 1: 5-HT2A receptor binding inhibition test ([3H]-Ketanserin; non-specific ligand Serotonin HCl)
T1 construct: expressed in transfected cells; host or cells: Jump-In HEK cells (membrane preparation)
Procedure: The Kd value is calculated when the lot of the cell membrane is changed. 1 mmol/L non-specific binding calculating compound dissolved in DMSO or DMSO is previously dispensed to the microplate by 0.5 µL, and the cell membrane is diluted with an Assay buffer. The radioactive ligand solution is diluted step by step, and counts are checked with a liquid scintillator. The Assay buffer containing diluted cell membranes is dispensed by 50 µL/well into the microplate. The radioactive ligand solution is then dispensed by 50 µL/well into the microplate and the plate is sealed. The microplate is allowed to stand for 1.5 hours at room temperature (25°C). During this time, 50 mmol/L Tris-HCl (pH 7.4) is dispensed by 50 µL/well on the GF/B UniFilter plate and allowed to stand at 4°C for 1 hour or longer. Thereafter, filtration is performed with a Cell Harvester (PerkinElmer). The radioactive ligand solution is dispensed by 10 µL/well into empty wells of the GF/B UniFilter plate. After drying the GF/B UniFilter plate at room temperature, MicroScinti20 is dispensed by 50 µL/well into the GF/B UniFilter plate, and the plate is sealed. GF/B UniFilter plate is allowed to stand at room temperature overnight. The radioactivity of [^3H]-Ketanserin bound to the 5-HT2A receptor is measured using Microbeta2 (PerkinElmer) at a measurement time of 1 min/well. The Saturation curve is drawn from the measured value, and the Kd value is calculated from the slope of the Scatchard Plot.
A compound solution dissolved in DMSO is dispensed to a microplate by 0.5 µL, and a cell membrane and a hot ligand are each diluted with an Assay buffer. The Assay buffer containing diluted cell membrane is then dispensed by 50 µL/well into the microplate. The radioactive ligand solution is then dispensed by 50 µL/well into the microplate and the plate is sealed. Thereafter, the microplate is allowed to stand at room temperature (25°C) for 1.5 hours. During this time, 50 mmol/L Tris-HCl (pH 7.4) is dispensed by 50 µL/well into the GF/B UniFilter plate and allowed to stand at 4°C for 1 hour or longer. Thereafter, filtration is performed with a Cell Harvester (PerkinElmer). After drying the GF/B UniFilter plate at room temperature, MicroScinti20 is dispensed by 50 µL/well into the GF/B UniFilter plate, and the plate is sealed. GF/B UniFilter plate is allowed to stand at room temperature overnight. The radioactivity of [^3H]-Ketanserin bound to the 5-HT2A receptor is measured using Microbeta2 (PerkinElmer) at a measurement time of 1 min/well. Non-specific binding is calculated from the radioactivity of [^3H]-Ketanserin in the presence of 500 µmol/L Serotonin HCl of unlabeled ligand, and total binding is calculated from the radioactivity of [^3H]-Ketanserin in the absence of the compound of the present invention (Vehicle). Finally, the Ki value is calculated from the dose-response curve.
(The binding activity of the compound according to the present invention is calculated from the following binding inhibition rate (%).) Inhibition rate (%) = [1−(c−a)/(b−a)] × 100 [formula] • a; average cpm of non-specific binding • b; average cpm of total binding • c; cpm in the presence of the test compound
The compounds of the present invention were tested essentially as described above.

[2] = target: T2, CYP3A4 (Homo sapiens, UniProt P08684); test: Test Example 8: CYP3A4 (MDZ) MBI test; format: in vitro ADME; details: pooled human liver microsomes; substrate 10 µmol/L MDZ; pre-reaction 0 or 30 minutes; compound 0.83, 5, 10, 20 µmol/L
T2 construct: pooled human liver microsomes by 1-hydroxylation reaction of midazolam (MDZ) as a marker reaction; from tissue; host or cells: pooled human liver microsomes
Procedure: CYP3A4 (MDZ) MBI test is a test of investigating MBI potential on CYP3A4 by the enhancement of inhibitory degree of a metabolic reaction caused by the compound of the present invention. CYP3A4 inhibition is evaluated using pooled human liver microsomes by 1-hydroxylation reaction of midazolam (MDZ) as a marker reaction.
The reaction conditions are as follows: substrate, 10 µmol/L MDZ; pre-reaction time, 0 or 30 minutes; substrate reaction time, 2 minutes; reaction temperature, 37°C; pooled human liver microsomes, at pre-reaction 0.5 mg/mL, at reaction 0.05 mg/mL (at 10-fold dilution); concentrations of the compound of the present invention, at pre-reaction 0.83, 5, 10, 20 µmol/L (4 points).
Pooled human liver microsomes and a solution of the compound of the present invention in K-Pi buffer (pH 7.4) as a pre-reaction solution are added to a 96-well plate at the composition of the pre-reaction. A part of pre-reaction solution is transferred to another 96-well plate, and diluted 10-fold by K-Pi buffer containing a substrate. NADPH as a cofactor is added to initiate a reaction as a marker reaction (without preincubation). After a predetermined time of the reaction, methanol/acetonitrile=1/1 (V/V) solution is added to stop the reaction. NADPH is also added to the remaining pre-reaction solution to initiate the pre-reaction (with pre-reaction), and after the pre-reaction for a predetermined time, a part is transferred to and diluted 10-fold by K-Pi buffer containing a substrate to initiate the reaction as a marker reaction. After a predetermined reaction time, the reaction is stopped by adding a methanol/acetonitrile = 1/1 (V/V) solution. Each plate where the indicator reaction has been performed is centrifuged at 3000 rpm for 15 minutes. Then, midazolam 1-hydroxide in the centrifuged supernatant is quantified by LC/MS/MS.
The sample adding DMSO as a solvent to a reaction system instead of a solution dissolving the compound of the present invention is adopted as a control (100 %). Remaining activity (%) is calculated at each concentration of the compound of the present invention compared to a control, and IC value is calculated by reverse-presumption by a logistic model using a concentration and an inhibition rate. Shifted IC value is calculated as "IC of preincubation at 0 minutes/ IC of preincubation at 30 minutes". When a shifted IC is 1.5 or more, this is defined as positive. When a shifted IC is 1.0 or less, this is defined as negative.

T2 sequence (P08684 whole entry): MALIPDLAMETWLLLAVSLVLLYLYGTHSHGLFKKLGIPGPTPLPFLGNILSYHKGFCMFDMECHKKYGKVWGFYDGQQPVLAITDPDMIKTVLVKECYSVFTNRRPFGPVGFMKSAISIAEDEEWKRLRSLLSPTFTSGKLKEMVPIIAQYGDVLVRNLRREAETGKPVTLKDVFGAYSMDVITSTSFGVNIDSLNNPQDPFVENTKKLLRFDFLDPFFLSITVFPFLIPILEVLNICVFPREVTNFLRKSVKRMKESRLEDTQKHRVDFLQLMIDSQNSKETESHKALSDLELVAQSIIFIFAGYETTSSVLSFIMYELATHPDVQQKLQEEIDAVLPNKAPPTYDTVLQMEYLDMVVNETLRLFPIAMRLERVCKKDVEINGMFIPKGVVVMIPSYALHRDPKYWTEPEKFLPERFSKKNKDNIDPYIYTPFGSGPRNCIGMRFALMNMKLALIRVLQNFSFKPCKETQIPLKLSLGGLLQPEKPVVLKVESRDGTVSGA
T1 sequence (P28223 whole entry): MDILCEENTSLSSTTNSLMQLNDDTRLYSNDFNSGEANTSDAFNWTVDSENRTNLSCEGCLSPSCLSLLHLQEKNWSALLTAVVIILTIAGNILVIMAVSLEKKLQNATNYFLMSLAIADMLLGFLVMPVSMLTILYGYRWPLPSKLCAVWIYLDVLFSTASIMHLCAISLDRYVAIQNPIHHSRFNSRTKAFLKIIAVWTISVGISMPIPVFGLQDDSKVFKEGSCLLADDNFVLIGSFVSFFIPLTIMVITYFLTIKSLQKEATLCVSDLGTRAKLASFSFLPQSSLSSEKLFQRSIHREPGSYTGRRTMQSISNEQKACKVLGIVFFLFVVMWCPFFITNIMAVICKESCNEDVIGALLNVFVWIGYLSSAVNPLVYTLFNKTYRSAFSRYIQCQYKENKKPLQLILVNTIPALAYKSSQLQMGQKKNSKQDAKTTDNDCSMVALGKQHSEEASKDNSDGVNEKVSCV

SMILES: Cn1ncc(Br)c1-c1cc(Nc2ncc(C(F)(F)F)cc2F)ccc1OCCO [Compound I-006]
Ki [1]: 0.317 nM

Ki ([1]; [3H]-Ketanserin, non-specific binding with 500 µmol/L Serotonin HCl, room temperature (25°C), 1.5 hours, read-out: h 5-HT2A Ki): 0.344 nM
SMILES: Cc1cnn(C)c1-c1cc(Nc2ncc(C(F)(F)F)cc2F)ccc1OCCO [Compound I-008]

SMILES: Cn1ncc(F)c1-c1cc(Nc2ncc(C(F)(F)F)cc2F)cnc1OCCO [Compound I-127]
CYP3A4 (MDZ) MBI (shifted IC: IC of preincubation at 0 minutes/ IC of preincubation at 30 minutes) [2]: Negative (When a shifted IC is 1.0 or less, this is defined as negative)

SMILES: COCc1nc(C)c(-c2cc(Nc3ncc(OC(F)(F)F)cc3Cl)ncc2OCCO)c(C)n1 [Compound I-200]
CYP3A4 (MDZ) MBI (shifted IC: IC of preincubation at 0 minutes/ IC of preincubation at 30 minutes) [2]: Negative (When a shifted IC is 1.0 or less, this is defined as negative)

SMILES: COCc1nc(C)c(-c2nc(Nc3ccc(C(F)(F)F)c(C)n3)c(F)cc2OCCO)c(C)n1 [Compound I-247]
CYP3A4 (MDZ) MBI (shifted IC: IC of preincubation at 0 minutes/ IC of preincubation at 30 minutes) [2]: Negative (When a shifted IC is 1.0 or less, this is defined as negative)

SMILES: Cc1nc(COC2COC2)nc(C)c1-c1cc(Nc2ncc(C(F)(F)F)cc2Cl)ncc1OCCO [Compound I-376]
CYP3A4 (MDZ) MBI (shifted IC: IC of preincubation at 0 minutes/ IC of preincubation at 30 minutes) [2]: Negative (When a shifted IC is 1.0 or less, this is defined as negative)

SMILES: Cc1nc(CO[C@@H]2CCOC2)nc(C)c1-c1cc(Nc2ncc(C(F)(F)F)cc2Cl)ncc1OCCO [Compound I-378]
CYP3A4 (MDZ) MBI (shifted IC: IC of preincubation at 0 minutes/ IC of preincubation at 30 minutes) [2]: Negative (When a shifted IC is 1.0 or less, this is defined as negative)
